This passage reports Kb, activation and IC50 results from patent US20090239877A1, “NOVEL 1,2,4-TRIAZOLE DERIVATIVES AND PROCESS OF MANUFACTURING THEREOF” (AETERNA ZENTARIS GmbH, priority 2008, published 2009).

Test [1] concerns the target T1, human GHS-R 1a (Homo sapiens, UniProt Q92847). Kind of test: In vitro intracellular calcium release assay using human GHS-R 1a transfected CHO cells. The arrangement: expressed in transfected cells; host or cells: CHO-K1 Chinese hamster ovary cells (ATCC No. CCL-61), transient transfection by electroporation. Particulars: antagonist dissociation constant, antagonist inhibition curves in the presence of 10^-7 M ghrelin, Cheng-Prusoff equation, Fluo-4 AM. It counts as cell-based. (A change in cytosolic calcium serves as a functional read-out for many receptors and channels.)

The target of test [2] is T1, human GHS-R 1a. The test is described as above. It counts as cell-based. The arrangement: expressed in transfected cells; host or cells: CHO-K1 Chinese hamster ovary cells (ATCC No. CCL-61), transient transfection by electroporation. Particulars: intracellular calcium release, compound at 10^-6 M, relative to basal level (0%) and 1 μM ghrelin (100%). The procedure:
The ability to properly activate the receptors is assessed for any compound of the invention by comparing the degree of activation (increase of intracellular calcium) of GHS-R 1a by the compound to be tested (at 10^−6 M concentration) to the degree of activation (increase of intracellular calcium) of GHS-R 1a by 10^−6 M ghrelin (100%) and to the basal level (0%). Such assessment can be readily performed by the skilled artisan due to his expert knowledge. The output is a percentage value for each compound to be tested. […]
III) In Vitro Intracellular Calcium Release Assay Using Human GHS-R 1a Transfected CHO Cells
The potential of the compounds of the invention to modulate GHS receptor activity was assessed by an in vitro intracellular Calcium release assay employing CHO cells that were transfected with human GHS-R 1a.
Release of intracellular calcium or inhibition thereof was measured using the fluorescent calcium indicator assay (FLIPR) and Fluo-4 AM.
CHO cells (CHO-KI Chinese Hamster Ovary cell line, ATCC No. CCL-61) were transiently transfected with human GHS-R 1a cDNA by electroporation and plated into 96-well black bottom plates (Corning 3603) (80,000 cells/well). Transient transfections were performed using the Easyject Optima Electroporator (Equibio), according to the manufacturer's instructions.
Transfected cells were grown in Dulbecco's modified Eagle's medium without phenol red, supplemented with 10% (v/v) non-essential amino acids, […] glutamine and streptomycin-penicillin (250 μg/ml-250 u/ml) (all purchased from Cambrex) at 37° C., 5% CO2 in a humidified atmosphere for 24 hours.
After incubation, transfected cells were washed with 150 μl Buffer A [Hanks' balanced salt solution (Sigma H-6648), 0.5% (v/v) BSA (Sigma A-7906), 20 mM CaCl2, 2.5 mM probenecid (pH 7.4, dissolved in 1 M NaOH) (Sigma P-8761)] and were then loaded with fluorescent calcium indicator Fluo-4 AM (10^−6 M) (Interchim UP72972) prepared in Buffer A, additionally containing 0.06% pluronic acid (Molecular probes P-6867) (a […] detergent which facilitates Fluo-4AM ester loading). (Loading: 100 μl per well of Buffer A containing 120 μl/ml Pluronic Acid and 1 μM Fluo-4AM was added to the cells).
After loading with Fluo-4 AM, transfected cells were incubated for 1 hour in the dark at 37° C.
Compounds to be tested were dissolved in Buffer A in triplicates at a concentration of 10^−6 M and distributed into another 96-well plate (Fisher Labosi A1210500).
Following incubation, excess Fluo-4AM was removed, 100 μl of Buffer A was added to each well at room temperature and immediately removed by aspiration. This was then repeated, before adding 50 μl Buffer A to each well.
Transfected cells were further incubated room temperature for 30 min to allow complete de-esterification of intracellular Fluo-4AM esters.
Subsequently, both plates, the black-bottom plate containing transfected cells and the microtiter plate containing the compounds to be tested, were then placed into a temperature-regulated (25° C.) FlexStation machine (benchtop scanning fluorometer Flex Station II, Molecular Devices, Sunnyvale, Calif., USA) for fluorescence output measurements.
Basal fluorescence output from the transfected cells was measured for 15 sec and then 50 μl of the compounds to be tested were automatically distributed into the wells containing the transfected cells. The fluorescence output was then recorded for a further 45 sec.
Excitation and emission wavelengths were 485 nm and 525 nm, respectively. Basal fluorescence intensity of Fluo-4AM-loaded transfected cells without compounds to be tested varied between 800-1200 arbitrary units, whereas maximal fluorescence output of dye-loaded transfected cells upon incubation with the compounds to be tested varied between 5000-7000 arbitrary units and was equivalent to that achieved by stimulation of dye-loaded transfected cells with 10^−6 M ghrelin. […]

Test [3] addresses T1, human GHS-R 1a. Briefly: GHS-R 1a receptor-ligand binding assay (membrane preparations from transfected LLC PK-1 cells). Also noted: expressed in transfected cells. The following applies: displacement of 125I-His9-ghrelin; plasma membranes of LLC PK-1 cells transiently transfected with human GHS-R 1a; mean of at least two independent experiments in triplicates. In a few lines: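 Membranes (10 μg protein) from LLC PK-1 cells transiently transfected with human GHS-R 1a cDNA were incubated 60 min at 25° C in 50 mM Tris pH 7.3 buffer with […] ^125I-His^9-ghrelin, with nonspecific binding defined by 10^−6 M ghrelin. Filter-bound radioactivity was gamma-counted, and IC50 was obtained by non-linear regression of competition curves.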
(In a radioligand displacement assay an active substance lowers the binding of a labelled ligand.)

T1 sequence (Q92847 whole entry): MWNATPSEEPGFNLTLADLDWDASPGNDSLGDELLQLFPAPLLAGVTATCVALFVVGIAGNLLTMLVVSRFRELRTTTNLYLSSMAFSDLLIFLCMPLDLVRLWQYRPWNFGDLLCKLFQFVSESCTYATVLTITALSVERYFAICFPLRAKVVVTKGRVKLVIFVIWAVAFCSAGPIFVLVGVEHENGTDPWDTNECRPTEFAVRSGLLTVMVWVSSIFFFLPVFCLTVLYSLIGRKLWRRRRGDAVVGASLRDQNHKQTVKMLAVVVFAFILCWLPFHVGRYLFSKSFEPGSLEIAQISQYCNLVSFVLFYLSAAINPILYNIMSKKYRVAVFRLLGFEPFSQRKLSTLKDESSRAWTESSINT

For `COc1ccc(Cn2c(CCc3ccccc3)nnc2[C@@H](Cc2c[nH]c3ccccc23)NC(=O)c2ccnnc2)c(OC)c1` [Compound 7, N-((R)-1-(4-(2,4-dimethoxybenzyl)-5-phenethyl-4H-1,2,4-triazol-3-yl)-2-(1H-indol-3-yl)ethyl)pyridazine-4-carboxamide], the Kb – broadly, the affinity of an antagonist, worked out from how it opposes an agonist – in test [1] worked out at 0.057 µM. For the same compound, the activation at 1 µM in test [2] is 3%.
With `COc1ccc(Cn2c(CCc3ccccc3)nnc2[C@@H](Cc2c[nH]c3ccccc23)NC(=O)c2ccn[nH]2)c(OC)c1` [Compound 8, N-((R)-1-(4-(2,4-dimethoxybenzyl)-5-phenethyl-4H-1,2,4-triazol-3-yl)-2-(1H-indol-3-yl)ethyl)-1H-pyrazole-5-carboxamide], in test [1], the Kb came to 0.064 µM. Besides, in test [2], the activation at 1 µM is 0%. Besides, the IC50 (commonly the point on the concentration scale where inhibition reaches its midpoint) in test [3] is 0.35 µM.
With `COc1ccc(Cn2c(CCc3cc4ccccc4[nH]3)nnc2[C@@H](Cc2c[nH]c3ccccc23)NC(=O)C2CCOCC2)c(OC)c1` [Compound 11, N-((R)-1-(5-(2-(1H-indol-2-yl)ethyl)-4-(2,4-dimethoxybenzyl)-4H-1,2,4-triazol-3-yl)-2-(1H-indol-3-yl)ethyl)-tetrahydro-2H-pyran-4-carboxamide], the Kb in test [1] was found to be 0.04 µM. Besides, the activation at 1 µM in test [2] was 0%. The IC50 in test [3] turned out to be 0.012 µM.
Taken in the same sequence, the figures for `COc1ccc(Cn2c(CCc3ccccc3)nnc2[C@@H](Cc2c[nH]c3ccccc23)NC(=O)C2CCOCC2)c(OC)c1` [Compound 12, N-((R)-1-(4-(2,4-dimethoxybenzyl)-5-phenethyl-4H-1,2,4-triazol-3-yl)-2-(1H-indol-3-yl)ethyl)-tetrahydro-2H-pyran-4-carboxamide] were 0.068 µM, 3% and 0.0158 µM.
For `COc1ccc(Cn2c(CCc3c[nH]c4ccccc34)nnc2[C@@H](Cc2c[nH]c3ccccc23)NC(=O)c2ccn[nH]2)cc1` [Compound 14, N-((R)-1-(5-(2-(1H-indol-3-yl)ethyl)-4-(4-methoxybenzyl)-4H-1,2,4-triazol-3-yl)-2-(1H-indol-3-yl)ethyl)-1H-pyrazole-5-carboxamide], the Kb in test [1] worked out at 0.0128 µM. In test [2], the activation at 1 µM was found to be 15%. Moreover, the IC50 in test [3] is 0.0898 µM.
With `O=C(N[C@H](Cc1c[nH]c2ccccc12)c1nnc(CCc2ccccc2)n1Cc1cccc2ccccc12)c1ccccn1` [Compound 16, N-((R)-2-(1H-indol-3-yl)-1-(4-((naphthalen-1-yl)methyl)-5-phenethyl-4H-1,2,4-triazol-3-yl)ethyl)picolinamide], the Kb in test [1] is 0.079 µM. Moreover, the half-maximal inhibitory concentration (IC50) in test [3] is 0.125 µM.
Turning to `O=C(N[C@H](Cc1c[nH]c2ccccc12)c1nnc(CCc2ccccc2)n1Cc1cccc2ccccc12)C1CCOCC1` [Compound 19, N-((R)-2-(1H-indol-3-yl)-1-(4-((naphthalen-1-yl)methyl)-5-phenethyl-4H-1,2,4-triazol-3-yl)ethyl)-tetrahydro-2H-pyran-4-carboxamide], the antagonist equilibrium constant (Kb) in test [1] was 0.275 µM. In addition, in test [2], the activation at 1 µM amounted to 0%. For the same compound, the IC50 in test [3] was 0.39 µM.
Taken in the same sequence, the figures for `O=C(N[C@H](Cc1c[nH]c2ccccc12)c1nnc(CCCc2c[nH]c3ccccc23)n1Cc1ccccc1)c1ccccn1` [Compound 21, N-((R)-1-(5-(3-(1H-indol-3-yl)propyl)-4-benzyl-4H-1,2,4-triazol-3-yl)-2-(1H-indol-3-yl)ethyl)picolinamide] were 0.3 µM, 0% and 0.08 µM.
In the case of `O=C(N[C@H](Cc1c[nH]c2ccccc12)c1nnc(CCCc2c[nH]c3ccccc23)n1Cc1ccccc1)C1CCOCC1` [Compound 23, N-((R)-1-(5-(3-(1H-indol-3-yl)propyl)-4-benzyl-4H-1,2,4-triazol-3-yl)-2-(1H-indol-3-yl)ethyl)-tetrahydro-2H-pyran-4-carboxamide], the Kb in test [1] turned out to be 0.05 µM. Also, the activation at 1 µM in test [2] was 15%. The IC50 in test [3] is 0.37 µM.
As for `COc1ccc(Cn2c(CCc3c[nH]c4ccccc34)nnc2[C@H](Cc2c[nH]c3ccccc23)NC(=O)c2cnccn2)cc1` [Compound 29, N-((S)-1-(5-(2-(1H-indol-3-yl)ethyl)-4-(4-methoxybenzyl)-4H-1,2,4-triazol-3-yl)-2-(1H-indol-3-yl)ethyl)pyrazine-2-carboxamide], in test [1], the Kb came out at 0.215 µM. Further, the activation at 1 µM in test [2] stood at 0%.
Take `O=C(Cc1ccccn1)N[C@H](Cc1c[nH]c2ccccc12)c1nnc(Cc2ccccc2)n1Cc1ccc(Cl)c(Cl)c1` [Compound 34, N-((R)-1-(4-(3,4-dichlorobenzyl)-5-benzyl-4H-1,2,4-triazol-3-yl)-2-(1H-indol-3-yl)ethyl)-2-(pyridin-2-yl)acetamide]: in test [1], the Kb stood at 0.34 µM. In addition, the activation at 1 µM in test [2] was determined as 0%. Also, the IC50 in test [3] was determined as 0.11 µM.
For `O=C(N[C@H](Cc1c[nH]c2ccccc12)c1nnc(Cc2ccccc2)n1Cc1ccc(Cl)c(Cl)c1)c1ccccn1` [Compound 36, N-((R)-1-(4-(3,4-dichlorobenzyl)-5-benzyl-4H-1,2,4-triazol-3-yl)-2-(1H-indol-3-yl)ethyl)picolinamide], in that order: 0.215 µM, 20% and 0.07 µM.
`O=C(N[C@H](Cc1c[nH]c2ccccc12)c1nnc(Cc2ccccc2)n1Cc1ccc(Cl)c(Cl)c1)C1CCOCC1` [Compound 37, N-((R)-1-(4-(3,4-dichlorobenzyl)-5-benzyl-4H-1,2,4-triazol-3-yl)-2-(1H-indol-3-yl)ethyl)-tetrahydro-2H-pyran-4-carboxamide]: the Kb in test [1] was 0.215 µM. Also, in test [2], the activation at 1 µM was determined as 0%. The compound further had an IC50 in test [3] of 0.2 µM.
